# According to patent US20250276994A1, “CAP ANALOG FOR THE 5'-END OF EUKARYOTIC MESSENGER RNAS” (WESTFÄLISCHE WILHELMS-UNIVERSITÄT, priority 2021, published 2025):
# How the values were obtained:
# Reticulocyte Lysate = test: In vitro translation of capped FLuc-mRNA and luminescence measurement; type: biochemical
# Description: In vitro translation was performed using a eukaryotic cell free protein expression kit from Reticulocyte Lysate (Invitrogen). Experiments were performed in 12.5 μL total volume containing 20 ng of the corresponding FLuc-mRNAs, 50 μM L-methionine and 150 mM potassium acetate. Samples were mixed with 8.5 μL of the reticulocyte lysate and incubated for 90 min at 30° C. Afterwards, 2 μL of the respective translation mix were used in subsequent luminescence measurement. The translation efficiency of the reporter mRNAs was assessed in a luciferase assay using Beetle-juice Luciferase Assay Firefly (pjk). Luciferase activity was determined by adding 50 μL freshly prepared substrate solution to the translation mixture. Luminescence was monitored using a Tecan Infinite® m1000pro microplate reader with an acquisition time of 3 s (duration of signal acquisition).
# The photocleavable 5′-cap analog of formula (7) was used for in vitro transcription to make FLuc mRNA as described above. This was used for in vitro translation and Luminescence measurement as described above. The commercial non-modified cap analog denoted “m^7GpppG” (Jena Bioscience) was used as positive control. Samples were irradiated for 30 seconds. The ApppG capped mRNA, which is not recognized by the translation initiation factor served as negative control, which is substracted from the other samples as it represents background activity. The experiment was performed in quadruplicates. The FLuc-mRNA capped with the photocleavable 5′-cap analog of formula (7) is denoted “ONB”.
# The in vitro translation assay and luminescence measurement was performed as described above using the photocleavable 5′-cap analog of formula (12). The capped mRNA was denoted “DMNB-m^7GpCH2ppG capped FLuc-mRNA”. Samples were irradiated for 30 seconds (365 nm) or 60 seconds (405 nm). The commercial non-modified cap analog denoted “m^7GpppG” (Jena Bioscience) was used as positive control and all other samples were normalized to it. The ApppG capped mRNA, which is not recognized by the translation initiation factor served as negative control, which is substracted from the other samples as it represents background activity. The experiment was performed in triplicates, except *DMNB-m7GpCH2ppG (365 nm) which was a single determination.
# The in vitro translation assay in reticulocyte lysate and luminescence measurement was performed as described above using m^7GpppG capped FLuc-mRNA caged with the photocleavable 5′-cap analog of formulas (22) and (25) (denoted “DMNB m^7GpppG” and “NPOM m^7GpppG”). Samples were irradiated for 30 seconds at 365 nm. The ApppG capped mRNA, which is not recognized by the translation initiation factor served as negative control, which was substracted from the other samples as it represents background activity. The values were normalized to the non-irradiated sample with m^7GpppG capped mRNA (100%). The experiment was performed in triplicates.
# The in vitro translation assay in reticulocyte lysate and luminescence measurement was performed as described above using m^7GpppG capped FLuc-mRNA with modified nucleotides m^5C and N^1methyl-pseudouridine caged with the photocleavable 5′-cap analog of formulas (22) and (25) (denoted “DMNB m^7GpppG mod” and “NPOM m^7GpppG mod”). Samples were irradiated for 30 seconds at 365 nm. The ApppG capped mRNA, which is not recognized by the translation initiation factor served as negative control, which was substracted from the other samples as it represents background activity. The values were normalized to the non-irradiated sample with m^7GpppG capped mRNA (100%). The experiment was performed in triplicates.
# [1] = Irradiation of caged nucleosides, conversion estimated by HPLC; type: physicochemical; details: 450 nm; H2O:ACN (1:1)
# Description: Conversions from caged compounds to uncaged compounds were estimated by integrating the peaks of a UV-spectrum that resulted from the HPLC analysis (Agilent infinity 1260).
# When irradiating isolated N2-modified compounds, a final volume of 10 μL in double distilled water was irradiated using a LED (λmax=365 nm/405 nm/420 nm) and then analyzed by RP-HPLC.
# A 500 μM solution of the compound 15, nitropiperonylmethyl fused via a carbamate moiety to guanosine (denoted “NPOM guanosine” or “caged guanosine”), in water/acetone/acetonitrile was irradiated in a 10 μL volume with either 405 nm for 20 s, 40 s or 60 s or with 365 nm for 5 s, 10 s or 20 s, respectively, using a LED power (input 3W and output 147 mW/cm^2). HPLC analysis was performed as described above.
# Samples of the adenosine fused via a carbamate moiety to 7-(diethylamino)-4-(hydroxymethyl)-coumarin (DEACM) were irradiated with 450 nm. […] The peak at 21.1 min corresponds to the obtained compound and the peaks at 11.1 and 21.9 min correspond to the photo-cleavage products adenosine and DEACM-OH, respectively.
# T7 RNA polymerase = target: T1, T7 RNA polymerase (Escherichia phage T7, UniProt P00573); test: In vitro transcription of GLuc mRNA with cap analogs, gel analysis; type: biochemical
# T1 construct: purchased Thermo Scientific
# Description: First, the DNA sequence coding for eGFP, Firefly luciferase (FLuc) or Gaussia luciferase (GLuc) mRNAs were amplified from pmRNA-vectors containing the respective sequence. After purification (NucleoSpin Gel and PCR Clean-up, Macherey-Nagel), the resulting linear dsDNA was used as template (200 ng) for in vitro T7 transcription performed in transcription buffer (40 mM Tris/HCl, 25 mM NaCl, 8 mM MgCl2, 2 mM spermidine(HCl)3) by adding either a A/C/UTP (0.5 mM) mix or a mix with modified nucleotides (A/m^5C/N^1-methylpseudo-UTP) (0.5 mM), GTP (0.25 mM), GpppG, m7GpppG, ApppG, DMNB or NPOM cap analog (1 mM), T7 RNA polymerase (50 U) (Thermo Scientific) and pyrophosphatase (0.1 U) (Thermo Scientific) for 4 h at 37° C. Remaining DNA template was digested in presence of 2 U DNase I for 1 h at 37° C. and then mRNAs were purified using the RNA Clean & Concentrator™-5 Kit (Zymo Research). To digest non-capped RNAs, 10 U of the RNA 5′-polyphosphatase (Epicentre) as well as the supplied reaction buffer were added to purified mRNAs. After an incubation period of 30 min at 37° C., 0.5 U of the 5′-3′ exoribonuclease XRN1 (NEB) and MgCl2 (5 mM) were added. The reaction mixture was incubated for 60 min at 37° C. Subsequently, capped mRNAs were purified using the RNA Clean & Concentrator™-5 Kit (Zymo Research).
# The photocleavable 5′-cap analogs of formulas (12) and (18) were used for in vitro transcription of GLuc mRNA as described above and analysed via agarose gel electrophoresis.
# “M” denotes Riboruler low range RNA ladder.
# HeLa cells = test: Translation and irradiation in HeLa cells of capped GLuc-mRNA (luminescence); type: cell-based
# Description: HeLa cells were transferred to a 96 well plate 20 h prior transfection. 30.000 cells/well were cultivated in growth Media (MEM, 10% FCS, 1% glutamine, 1% Penicillin, 1% Streptomycine, […] non-essential aminoacids). For transfection the growth media was exchanged for MEM-media with 0.6 μL Metafectene® Pro (0.3 μL) and 100 ng mRNA was added per well. 6 h after transfection of the cells the media was exchange by MEM-media, followed by irradiation and another MEM-media exchange. After 24 h post transfection the supernatant in the wells was used for further luminescence measurements. Values of the ApppG capped mRNA represent cap independent translation and were therefore subtracted from the other values.
# In cell translation and irradiation in cell culture of mammalian HeLa cells was performed as described above. GLuc mRNA capped with the photocleavable 5′-cap analog of formula (12) (“DMNB”) was used and the commercial non-modified cap analog denoted “m^7GpppG” (Jena Bioscience) was used as a control. HeLa cells were either transfected with the DMNB-m^7GpCH2ppG capped mRNA (irradiated and non-irradiated before transfection) or with the natural capped mRNA (irradiated and non-irradiated before transfection). Irradiation of the mRNA containing the natural cap was performed (5 V, 600 mA) with 365 nm for 30 seconds to evaluate the resulting influence on translational efficiency. DMNB-m^7GpCH2ppG capped mRNA was irradiated in the same way or with 405 nm for 60 seconds. The ApppG capped mRNA, which is not recognized by the translation initiation factor served as negative control, which is substracted from the other samples as it represents background activity. The values were normalized to the non-irradiated m^7GpppG capped sample (100%). The experiment was performed in triplicates.
# The luminescence measurement of cell culture media after translation in cells transfected with modified and non-modified GLuc mRNA was repeated using irradiation with 365 nm/405 nm for different periods of time. HeLa cells were either transfected with the GLuc mRNA capped with the photocleavable 5′-cap analog of formula (12) denoted “DMNB-m^7GpCH2ppG capped mRNA” or with the natural m^7GpppG capped mRNA. Cells transfected with the natural capped mRNA were irradiated (5 V, 600 mA) with 365 nm/405 nm for 30 s or 60 s to evaluate the resulting influence on translational efficiency. Cells transfected with DMNB-m^7GpCH2ppG capped mRNA were irradiated in the same way. The ApppG capped mRNA, which is not recognized by the translation initiation factor served as negative control, which is substracted from the other samples as it represents background activity. The values were normalized to the non-irradiated cells with m^7GpppG capped mRNA (100%). The experiment was performed in triplicates.
# Luminescence measurement of cell culture media after translation of transfected modified and non-modified GLuc mRNA in cells. HeLa cells were either transfected with the NPOM-m^7GpCH2ppG capped mRNA or with the natural m^7GpppG capped mRNA. Cells transfected with the natural capped mRNA were irradiated (5 V, 600 mA) with 365 nm/405 nm for different periods of time to evaluate the resulting influence on translational efficiency. Cells transfected with NPOM-m^7GpCH2ppG capped mRNA were irradiated in the same way. The ApppG capped mRNA, which is not recognized by the translation initiation factor served as negative control, which is substracted from the other samples as it represents background activity. […]
# T1 sequence (P00573 whole entry): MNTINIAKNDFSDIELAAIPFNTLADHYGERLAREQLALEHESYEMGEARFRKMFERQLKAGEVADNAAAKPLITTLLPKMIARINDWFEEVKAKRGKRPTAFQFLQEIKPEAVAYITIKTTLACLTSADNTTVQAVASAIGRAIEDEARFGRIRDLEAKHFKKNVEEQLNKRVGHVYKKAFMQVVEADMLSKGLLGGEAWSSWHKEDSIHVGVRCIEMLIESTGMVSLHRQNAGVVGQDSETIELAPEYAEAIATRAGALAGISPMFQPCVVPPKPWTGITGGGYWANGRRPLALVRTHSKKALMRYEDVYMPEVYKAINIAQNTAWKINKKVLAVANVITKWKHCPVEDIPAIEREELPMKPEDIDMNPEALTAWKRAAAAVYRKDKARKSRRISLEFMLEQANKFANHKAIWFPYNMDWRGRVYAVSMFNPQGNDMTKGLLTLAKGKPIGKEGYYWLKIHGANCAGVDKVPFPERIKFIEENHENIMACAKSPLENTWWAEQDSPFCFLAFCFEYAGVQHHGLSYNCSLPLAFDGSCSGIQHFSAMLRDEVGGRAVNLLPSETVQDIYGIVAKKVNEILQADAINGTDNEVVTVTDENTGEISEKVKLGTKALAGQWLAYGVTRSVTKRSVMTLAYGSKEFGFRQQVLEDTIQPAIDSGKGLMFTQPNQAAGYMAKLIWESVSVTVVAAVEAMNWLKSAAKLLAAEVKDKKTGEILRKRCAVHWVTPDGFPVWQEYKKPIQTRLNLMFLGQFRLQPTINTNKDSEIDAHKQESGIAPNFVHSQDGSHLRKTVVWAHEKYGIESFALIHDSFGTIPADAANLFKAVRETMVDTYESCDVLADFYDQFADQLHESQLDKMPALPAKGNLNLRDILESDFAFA
smiles,measurement,setting,value
"CC(OC(=O)Nc1nc2c(c(=O)[nH]1)[n+](C)cn2[C@@H]1O[C@H](COP(=O)(O)OP(=O)(O)OP(=O)(O)OC[C@H]2O[C@@H](n3cnc4c(=O)[nH]c(N)nc43)C(O)C2O)C(O)C1O)c1cc2c(cc1[N+](=O)[O-])OCO2 (stereo partly drawn) [compound 25, P1-(N^2-(1-(6-nitrobenzo[d][1,3]dioxol-5-yl)ethyl)oxycarbonyl-7-methylguanosin-5′-yl)-P3-guanosin-5′-yl triphosphate]",in vitro translation (luminescence) after irradiation,"Reticulocyte Lysate; capped FLuc-mRNA with modified nucleotides m^5C and N^1methyl-pseudouridine, 30 seconds at 365 nm",marked increase of translation
same,in vitro translation (luminescence) after irradiation,"Reticulocyte Lysate; capped FLuc-mRNA, regular nucleotides, 30 seconds at 365 nm",marked increase of translation
CCN(CC)c1ccc2c(COC(=O)Nc3ncnc4c3ncn4[C@@H]3O[C@H](CO)[C@H](O)C3O)cc(=O)oc2c1 (stereo partly drawn),photo-cleavage upon irradiation (HPLC),[1],photocleavable
"Cn1c[n+]([C@@H]2O[C@H](COP(=O)(O)OP(=O)([O-])OP(=O)(O)OC[C@H]3O[C@@H](n4cnc5c(=O)[nH]c(N)nc54)[C@H](O)[C@@H]3O)[C@@H](O)[C@H]2O)c2nc(N)[nH]c(=O)c21 [m^7GpppG, reference compound]",incorporation of cap analog into RNA,T7 RNA polymerase,incorporated into the RNA
"C[n+]1cn([C@@H]2O[C@H](COP(=O)(O)CP(=O)(O)OP(=O)(O)OC[C@H]3O[C@@H](n4cnc5c(=O)[nH]c(N)nc54)C(O)C3O)C(O)C2O)c2nc(NC(=O)OCc3ccccc3[N+](=O)[O-])[nH]c(=O)c21 (stereo partly drawn) [compound 7, P1-(N^2-(2-Nitrobenzyl)oxycarbonyl-7-methylguanosin-5′-yl)-P3-guanosin-5′-yl 1,2-methylenetriphosphate]",in vitro translation (luminescence) after irradiation,"Reticulocyte Lysate; capped FLuc-mRNA, irradiated for 30 seconds",partially restored
same,"in vitro translation (luminescence), non-irradiated","Reticulocyte Lysate; capped FLuc-mRNA, non-irradiated, normalized to m^7GpppG capped mRNA",successfully inhibited to a high degree
same,translation efficiency (luminescence of cell supernatant),"HeLa cells; differently capped GLuc mRNAs, normalized to m^7GpppG, single determination",impacts the translation efficiency in an inhibiting way
"CC(OC(=O)Nc1nc2c(c(=O)[nH]1)[n+](C)cn2[C@@H]1O[C@H](COP(=O)(O)CP(=O)(O)OP(=O)(O)OC[C@H]2O[C@@H](n3cnc4c(=O)[nH]c(N)nc43)C(O)C2O)C(O)C1O)c1cc2c(cc1[N+](=O)[O-])OCO2 (stereo partly drawn) [compound 18, P1-(N^2-(1-(6-nitrobenzo[d][1,3]dioxol-5-yl)ethyl)oxycarbonyl-7-methylguanosin-5′-yl)-P3-guanosin-5′-yl 1,2-methylenetriphosphate]",translation in cells (luminescence) after irradiation of the cells,"HeLa cells; GLuc mRNA, transfected cells irradiated 15 s, 25 s or 30 s, increase at 365 nm",significant increase of translation
same,incorporation of cap analog into RNA,T7 RNA polymerase,incorporated into the RNA
